From patent US20240343704A1, “HALO-SUBSTITUTED AMINO PYRIDINE COMPOUNDS AS INHIBITORS OF THE HAEMATOPOIETIC PROGENITOR KINASE 1 (HPK1)” (priority 2021, published 2024)
Like-named read-outs stand apart in the source and are kept apart here.

Tests used:
Lck (h) = Lck (h) (Homo sapiens, UniProt P06239); test: Lck Human  Kinase Enzymatic Radiometric Assay; assay type: biochemical
Method in brief: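 Substrate 33P-incorporation measured by scintillation counting after spotting on P30 filtermat and phosphoric acid washes. Human Lck reacted 40 min at RT in 50 mM Tris pH 7.5 with 10 mM MgAcetate, [gamma-33P]-ATP, 250 uM Cdc2 peptide, 0.1 mM EGTA and 0.1 mM Na3VO4.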

[1] = molecular target: T1, Recombinant (1-346) HPK1 (h) (Homo sapiens, UniProt Q92918); test: HPK1 Human STE Kinase Enzymatic Radiometric Assay; assay type: biochemical
T1 construct: Recombinant (1-346) HPK1 (h) is incubated with 8 mM MOPS pH 7.0
T1 sequence (Q92918 1-346): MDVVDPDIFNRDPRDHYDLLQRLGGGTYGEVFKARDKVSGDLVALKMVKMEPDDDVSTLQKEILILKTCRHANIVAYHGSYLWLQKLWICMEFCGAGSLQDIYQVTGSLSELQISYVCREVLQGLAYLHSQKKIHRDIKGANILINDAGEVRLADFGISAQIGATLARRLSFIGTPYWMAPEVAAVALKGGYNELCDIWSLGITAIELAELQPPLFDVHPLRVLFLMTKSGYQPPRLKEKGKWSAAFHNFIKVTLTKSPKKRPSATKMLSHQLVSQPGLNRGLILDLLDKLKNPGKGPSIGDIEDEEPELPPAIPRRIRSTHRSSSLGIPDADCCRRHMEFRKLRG
Description: A stock solution of 10 mM of test compound is prepared in DMSO. The compound plate was prepared by 3-fold and 9-point serial dilutions. […] The reaction is initiated by The addition of the Mg/ATP mix. After incubation for 40 minutes at RT, the reaction is stopped by the addition of phosphoric acid to a concentration of 0.5%.

Lck (h), sequence (P06239 whole entry): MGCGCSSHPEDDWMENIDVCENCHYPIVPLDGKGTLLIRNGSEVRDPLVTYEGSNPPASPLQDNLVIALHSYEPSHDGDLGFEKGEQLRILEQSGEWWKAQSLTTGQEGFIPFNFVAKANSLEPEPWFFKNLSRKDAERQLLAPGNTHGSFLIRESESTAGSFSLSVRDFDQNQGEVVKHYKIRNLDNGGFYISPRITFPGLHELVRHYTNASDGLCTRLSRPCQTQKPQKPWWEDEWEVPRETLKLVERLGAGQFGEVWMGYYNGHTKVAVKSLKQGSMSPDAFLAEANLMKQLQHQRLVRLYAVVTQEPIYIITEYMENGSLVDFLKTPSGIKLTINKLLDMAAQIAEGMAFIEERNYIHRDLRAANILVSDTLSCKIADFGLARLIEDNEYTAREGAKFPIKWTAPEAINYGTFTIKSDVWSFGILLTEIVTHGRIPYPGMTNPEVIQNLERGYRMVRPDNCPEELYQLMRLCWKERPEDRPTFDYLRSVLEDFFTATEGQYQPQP

| Structure (SMILES) | IC50 (Lck (h); read-out: Lck IC50 nM Range*) [nM] | IC50 ([1]; read-out: HPK1 IC50 nM Range*) [nM] | IC50 (Lck (h)) [nM] | IC50 [1] [nM] |
| --- | --- | --- | --- | --- |
| CC(C)CN(C)C1CCN(c2ccc(-c3cc(-c4ccc5c(c4)CCNC5=O)c(N)nc3F)cc2)C1 (stereo not drawn) [I-162, 6-(2-amino-6-fluoro-5-(4-(3-(isobutyl(methyl)amino)pyrrolidin-1-yl)phenyl)pyridin-3-yl)-3,4-dihydroisoquinolin-1(2H)-one] | > 1000 | 0.1 to 10 | – | – |
| Nc1nc(F)c(-c2ccc(N3CCC(F)CC3)cc2)cc1-c1ccc2c(c1)CCNC2=O [I-163, 6-(2-amino-6-fluoro-5-(4-(4-fluoropiperidin-1-yl)phenyl)pyridin-3-yl)-3,4-dihydroisoquinolin-1(2H)-one] | > 1000 | 0.1 to 10 | – | – |
| CC(C)N1CCC(C)(c2ccc(-c3cc(-c4ccc5c(c4)CCNC5=O)c(N)nc3F)cc2)C1 (stereo not drawn) [I-164, 6-(2-amino-6-fluoro-5-(4-(1-isopropyl-3-methylpyrrolidin-3-yl)phenyl)pyridin-3-yl)-3,4-dihydroisoquinolin-1(2H)-one] | > 1000 | 0.1 to 10 | – | – |
| COCCN1C[C@@H]2C[C@]2(c2ccc(-c3cc(-c4ccc5c(c4)CCNC5=O)c(N)nc3F)cc2)C1 [I-165, 6-(2-amino-6-fluoro-5-(4-((1S,5R)-3-(2-methoxyethyl)-3-azabicyclo[3.1.0]hexan-1-yl)phenyl)pyridin-3-yl)-3,4-dihydroisoquinolin-1(2H)-one] | > 1000 | 0.1 to 10 | – | – |
| COCCN1CCC(c2ccc(-c3cc(-c4ccc5c(c4)CCNC5=O)c(N)nc3Cl)cc2)CC1 [I-166, 6-(2-amino-6-chloro-5-(4-(1-(2-methoxyethyl)piperidin-4-yl)phenyl)pyridin-3-yl)-3,4-dihydroisoquinolin-1(2H)-one] | > 1000 | 11 to 100 | – | – |
| COCCN1CCC(O)(c2ccc(-c3cc(-c4ccc5c(c4)CCNC5=O)c(N)nc3F)cc2)CC1 [I-167, 6-(2-amino-6-fluoro-5-(4-(4-hydroxy-1-(2-methoxyethyl)piperidin-4-yl)phenyl)pyridin-3-yl)-3,4-dihydroisoquinolin-1(2H)-one] | > 1000 | 0.1 to 10 | – | – |
| Nc1nc(Cl)c(-c2ccc(N3CCN(CC(F)F)CC3)cc2)cc1-c1ccc2c(c1)CCNC2=O [I-168, 6-(2-amino-6-chloro-5-(4-(4-(2,2-difluoroethyl)piperazin-1-yl)phenyl)pyridin-3-yl)-3,4-dihydroisoquinolin-1(2H)-one] | > 1000 | 11 to 100 | – | – |
| CC(C)N1CCN(c2ccc(-c3cc(-c4ccc5c(c4)CCNC5=O)c(N)nc3Cl)cc2)CC1 [I-169, 6-(2-amino-6-chloro-5-(4-(4-isopropylpiperazin-1-yl)phenyl)pyridin-3-yl)-3,4-dihydroisoquinolin-1(2H)-one] | > 1000 | 11 to 100 | – | – |
| CC(C)N1CCN(c2ccc(-c3cc(-c4cc5c(cc4F)C(=O)NCC5)c(N)nc3F)nc2)CC1 [I-170, 6-(6′-amino-2′-fluoro-5-(4-isopropylpiperazin-1-yl)-[2,3′-bipyridin]-5′-yl)-7-fluoro-3,4-dihydroisoquinolin-1(2H)-one] | > 1000 | 0.1 to 10 | – | – |
| CC(C)N1CC2C(F)(F)C2(c2ccc(-c3cc(-c4ccc5c(c4)CCNC5=O)c(N)nc3F)cc2)C1 (stereo not drawn) [I-171, 6-(2-amino-5-(4-(6,6-difluoro-3-isopropyl-3-azabicyclo[3.1.0]hexan-1-yl)phenyl)-6-fluoropyridin-3-yl)-3,4-dihydroisoquinolin-1(2H)-one] | > 1000 | 0.1 to 10 | – | – |
| Nc1nc(F)c(-c2ccc(N3CCNCC3)cc2)cc1-c1cc2c(cc1F)C(=O)NCC2 [I-172, 6-(2-amino-6-fluoro-5-(4-(piperazin-1-yl)phenyl)pyridin-3-yl)-7-fluoro-3,4-dihydroisoquinolin-1(2H)-one 2,2,2-trifluoroacetate] | > 1000 | 0.1 to 10 | – | – |
| CC(C)(C)OC(=O)N1CCC2(CC1)OCc1cc(-c3cc(-c4ccc5c(c4)CCNC5=O)c(N)nc3F)ccc1O2 [I-173, tert-butyl 6-(6-amino-2-fluoro-5-(1-oxo-1,2,3,4-tetrahydroisoquinolin-6-yl)pyridin-3-yl)-4H-spiro[benzo[d][1,3]dioxine-2,4′-piperidine]-1′-carboxylate] | – | – | > 1000 | 11 to 100 |
| CC(C)(C)OC(=O)N1CCC2(CC1)CC(=O)c1cc(-c3cc(-c4ccc5c(c4)CCNC5=O)c(N)nc3F)ccc1O2 [I-174, tert-butyl 6-(6-amino-2-fluoro-5-(1-oxo-1,2,3,4-tetrahydroisoquinolin-6-yl)pyridin-3-yl)-4-oxospiro[chromane-2,4′-piperidine]-1′-carboxylate] | > 1000 | 11 to 100 | – | – |
| CC(C)(C)OC(=O)N1CCC2(CCc3cc(-c4cc(-c5ccc6c(c5)CCNC6=O)c(N)nc4F)ccc3O2)CC1 [I-175, tert-butyl 6-(6-amino-2-fluoro-5-(1-oxo-1,2,3,4-tetrahydroisoquinolin-6-yl)pyridin-3-yl)spiro[chromane-24′-piperidine]-1′-carboxylate] | > 1000 | 101 to 1000 | – | – |
| CC(C)(C)OC(=O)N1CCC(Oc2ccc(-c3cc(-c4ccc5c(c4)CCNC5=O)c(N)nc3F)cc2C#N)CC1 [I-176, tert-butyl 4-(4-(6-amino-2-fluoro-5-(1-oxo-1,2,3,4-tetrahydroisoquinolin-6-yl)pyridin-3-yl)-2-cyanophenoxy)piperidine-1-carboxylate] | > 1000 | 11 to 100 | – | – |
| CC(C)(C)OC(=O)N1CCN(c2ccc(-c3cc(-c4ccc5c(c4)CCNC5=O)c(N)nc3F)cc2C(F)(F)F)CC1 [I-177, tert-butyl 4-(4-(6-amino-2-fluoro-5-(1-oxo-1,2,3,4-tetrahydroisoquinolin-6-yl)pyridin-3-yl)-2-(trifluoromethyl)phenyl)piperazine-1-carboxylate] | > 1000 | 101 to 1000 | – | – |
| C[C@@H]1C[C@@H](Oc2ccc(-c3cc(-c4ccc5c(c4)CCNC5=O)c(N)nc3F)cc2)C[C@H](C)N1 [I-178, 6-(2-amino-5-(4-(((2S,4s,6R)-2,6-dimethylpiperidin-4-yl)oxy)phenyl)-6-fluoropyridin-3-yl)-3,4-dihydroisoquinolin-1(2H)-one] | > 1000 | 0.1 to 10 | – | – |
| Nc1nc(F)c(-c2ccc(OC3CCNCC3)c(F)c2)cc1-c1ccc2c(c1)CCNC2=O [I-179, 6-(2-amino-6-fluoro-5-(3-fluoro-4-(piperidin-4-yloxy)phenyl)pyridin-3-yl)-3,4-dihydroisoquinolin-1(2H)-one] | > 1000 | 0.1 to 10 | – | – |
| Nc1nc(F)c(-c2ccc(O[C@@H]3CCCNC3)cc2)cc1-c1cc2c(cc1F)C(=O)NCC2 [I-180, (R)-6-(2-amino-6-fluoro-5-(4-(piperidin-3-yloxy)phenyl)pyridin-3-yl)-7-fluoro-3,4-dihydroisoquinolin-1(2H)-one] | > 1000 | 11 to 100 | – | – |
| Nc1nc(F)c(-c2ccc3c(c2)COC2(CCNCC2)O3)cc1-c1ccc2c(c1)CCNC2=O [I-181, 6-(2-amino-6-fluoro-5-(4H-spiro[benzo[d][1,3]dioxine-2,4′-piperidin]-6-yl)pyridin-3-yl)-3,4-dihydroisoquinolin-1(2H)-one] | – | – | > 1000 | 0.1 to 10 |
| Nc1nc(F)c(-c2ccc3c(c2)C(=O)CC2(CCNCC2)O3)cc1-c1ccc2c(c1)CCNC2=O [I-182, 6-(6-amino-2-fluoro-5-(1-oxo-1,2,3,4-tetrahydroisoquinolin-6-yl)pyridin-3-yl)spiro[chromane-2,4′-piperidin]-4-one 2,2,2-trifluoroacetate] | > 1000 | 0.1 to 10 | – | – |
